Laboratory results as given in patent US20250325552A1, “SUBSTITUTED THIADIAZOLYL DERIVATIVES AS DNA POLYMERASE THETA INHIBITORS” (IDEAYA Biosciences, Inc., priority 2020, published 2025).

biological target: Polθ theta (1-899) (hPolQ) (Homo sapiens (Human), UniProt O75417); test: Biological Assay 1: Polθ ATPase activity, NADH oxidation-coupled enzymatic assay (10 nM enzyme, 30 min); assay type: biochemical; conditions: Polθ (1-899) 10 nM, 100 μM ATP, 300 nM dT50 ssDNA; Examples 1 to 268; read-out: ATPase NADH coupling:Standard Screening:hPolQ IC50
Sequence (O75417 1-899): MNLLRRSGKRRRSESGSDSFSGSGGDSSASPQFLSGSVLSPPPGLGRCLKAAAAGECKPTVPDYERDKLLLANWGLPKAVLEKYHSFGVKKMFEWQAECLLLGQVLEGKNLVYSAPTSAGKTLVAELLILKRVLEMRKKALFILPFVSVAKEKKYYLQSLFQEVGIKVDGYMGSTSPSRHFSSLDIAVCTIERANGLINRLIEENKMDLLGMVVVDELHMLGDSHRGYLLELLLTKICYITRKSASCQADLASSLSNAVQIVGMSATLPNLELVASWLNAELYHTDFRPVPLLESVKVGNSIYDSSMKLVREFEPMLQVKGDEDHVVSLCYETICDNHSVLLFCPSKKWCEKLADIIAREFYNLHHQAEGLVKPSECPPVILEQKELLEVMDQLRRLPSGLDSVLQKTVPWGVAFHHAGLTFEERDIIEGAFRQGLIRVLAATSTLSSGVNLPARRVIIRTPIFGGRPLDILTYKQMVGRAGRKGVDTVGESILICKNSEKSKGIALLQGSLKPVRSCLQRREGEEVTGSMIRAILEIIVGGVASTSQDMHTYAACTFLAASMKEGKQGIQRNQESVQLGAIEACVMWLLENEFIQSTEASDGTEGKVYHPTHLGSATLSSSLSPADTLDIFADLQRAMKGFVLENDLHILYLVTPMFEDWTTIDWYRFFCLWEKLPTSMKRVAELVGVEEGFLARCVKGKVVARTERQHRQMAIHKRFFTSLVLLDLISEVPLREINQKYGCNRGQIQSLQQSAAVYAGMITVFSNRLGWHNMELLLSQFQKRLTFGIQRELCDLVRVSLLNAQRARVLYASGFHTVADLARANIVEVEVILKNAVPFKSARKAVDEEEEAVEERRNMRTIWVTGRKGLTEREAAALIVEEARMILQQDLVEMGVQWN
Method: The ability of the compounds of Formula (I), (II), (III), (IV), or Table 1 (Examples 1 to Example 268) to inhibit ATPase activity of Polθ theta (1-899) was determined using the assay described below.
Polθ Theta ATPase activity was determined by measuring the rate of ATP turn over in a NADH oxidation-coupled enzymatic assay. 10-point dilution series of compounds were used in a 384 well format for the inhibition assays. Polθ theta (1-899) (10 nM) in assay buffer (20 mM Tris HCl (pH 7.80), 80 mM KCl, 10 mM MgCl2, 1 mM DTT, 0.01% BSA, 0.01% Tween, 5% glycerol) was transferred to the test wells (20 μL), except the low control wells (20 μL of assay buffer was added to the low control wells). The plate was then incubated at room temperature for 15 min. An equal volume (20 μL) of 100 μM ATP, 300 nM dT50 (single-stranded DNA (ssDNA) containing 50 thymine bases), 300 μM NADH, 6 mM PEP, 10 U/mL lactate dehydrogenase and U/mL pyruvate kinase in assay buffer was added to all the test wells. The plate was then centrifuged at 1000 rpm for 1 min. The reaction was monitored for 30 min by measuring absorbance (λ=340 nm) in a Tecan Spark multimode plate reader every minute. The high control (DMSO with enzyme) with low absorbance intensity represents no inhibition of ATPase reaction while the low control (DMSO with buffer) with high absorbance intensity represents full inhibition of ATPase activity. Slope of the reaction progress curves were used to calculate the rate of ATP hydrolysis. The rates were used to determine the percent inhibition using a four-parameter inhibition model to generate IC50, Hill slope and max inhibition.

| SMILES | IC50 [nM] |
| --- | --- |
| COc1cccc(F)c1-c1cc(C)ncc1C(=O)Nc1nnc(OCc2ccc(C3(C)COC3)cn2)s1 [Example 140, 4-(2-fluoro-6-methoxyphenyl)-6-methyl-N-(5-((5-(3-methyloxetan-3-yl)pyridin-2-yl)methoxy)-1,3,4-thiadiazol-2-yl)nicotinamide] | ≤ 200 |
| COc1ccnc(COc2nnc(NC(=O)c3cnc(C)cc3-c3c(F)cccc3OC)s2)c1 [Example 67, 4-(2-fluoro-6-methoxyphenyl)-N-(5-((4-methoxypyridin-2-yl)methoxy)-1,3,4-thiadiazol-2-yl)-6-methylnicotinamide] | ≤ 200 |
| COc1cnc(Cl)cc1-c1cc(C)ncc1C(=O)Nc1nnc(OCc2ccc(C(C)(C)O)cn2)s1 [Example 58, 2′-chloro-N-(5-((5-(2-hydroxypropan-2-yl)pyridin-2-yl)methoxy)-1,3,4-thiadiazol-2-yl)-5′-methoxy-6-methyl-[4,4′-bipyridine]-3-carboxamide] | ≤ 200 |
| COc1ccccc1-c1cc(C)ncc1C(=O)Nc1nnc(OCc2ncccc2CO)s1 [Example 62, N-(5-((3-(hydroxymethyl)pyridin-2-yl)methoxy)-1,3,4-thiadiazol-2-yl)-4-(2-methoxyphenyl)-6-methylpyridine-3-carboxamide] | 200 to 500 |
| Cc1cc(-c2cc(Cl)ncc2OC(F)F)c(C(=O)Nc2nnc(OC[C@@H]3COCCO3)s2)cn1 [Example 233, (S)—N-(5-((1,4-dioxan-2-yl)methoxy)-1,3,4-thiadiazol-2-yl)-2′-chloro-5′-(difluoromethoxy)-6-methyl-(4,4′-bipyridine)-3-carboxamide] | ≤ 200 |
| COc1cccnc1-c1cc(C)ncc1C(=O)Nc1nnc(OCc2ccc(Cl)cn2)s1 [Example 120, N-(5-((5-chloropyridin-2-yl)methoxy)-1,3,4-thiadiazol-2-yl)-3-methoxy-6′-methyl-(2,4′-bipyridine)-3′-carboxamide] | 200 to 500 |
| COc1cccc(F)c1-c1cc(C)ncc1C(=O)Nc1nnc(OCc2ccc3c(n2)CCOC3)s1 [Example 102, 4-(2-fluoro-6-methoxyphenyl)-6-methyl-N-(5-(5H,7H,8H-pyrano(4,3-b)pyridin-2-ylmethoxy)-1,3,4-thiadiazol-2-yl)pyridine-3-carboxamide] | ≤ 200 |
| COc1cccc(F)c1-c1cc(C)ncc1C(=O)Nc1nnc(OCc2ccc([C@@H](C)O)cn2)s1 [Example 41, 4-(2-fluoro-6-methoxyphenyl)-N-(5-((5-((R)-1-hydroxyethyl)pyridin-2-yl)methoxy)-1,3,4-thiadiazol-2-yl)-6-methylnicotinamide] | ≤ 200 |
| COc1cnc(Cl)cc1-c1cc(C)ncc1C(=O)Nc1nnc(OC[C@H]2CC[C@@H](O)C2)s1 (single isomer, unassigned) [Example 210] | ≤ 200 |
| COc1cnc(Cl)cc1-c1cc(C)ncc1C(=O)Nc1nnc(OC[C@H]2CC[C@](C)(O)CC2)s1 [Example 214, 2′-chloro-N-(5-(((1r,4r)-4-hydroxy-4-methylcyclohexyl)methoxy)-1,3,4-thiadiazol-2-yl)-5′-methoxy-6-methyl-(4,4′-bipyridine)-3-carboxamide] | ≤ 200 |
| COc1cnc(Cl)cc1-c1cc(C)ncc1C(=O)Nc1nnc(OCC2(F)CC2)s1 [Example 198, 2′-chloro-N-(5-((1-fluorocyclopropyl)methoxy)-1,3,4-thiadiazol-2-yl)-5′-methoxy-6-methyl-(4,4′-bipyridine)-3-carboxamide] | ≤ 200 |
| COc1cnc(Cl)cc1-c1cc(C)ncc1C(=O)Nc1nnc(OC[C@H]2COC3(CCC3)C2)s1 (single isomer, unassigned) [Example 227] | ≤ 200 |
| COc1cnc(Cl)cc1-c1cc(C)ncc1C(=O)Nc1nnc(OC[C@@H]2C[C@@H]2F)s1 [Example 202, 2′-chloro-N-(5-(((1S,2S)-2-fluorocyclopropyl)methoxy)-1,3,4-thiadiazol-2-yl)-5′-methoxy-6-methyl-(4,4′-bipyridine)-3-carboxamide] | ≤ 200 |
| COc1cccc(F)c1-c1cc(C)ncc1C(=O)Nc1nnc(OCc2ccc(C(C)(C)O)nc2)s1 [Example 109, 4-(2-fluoro-6-methoxyphenyl)-N-(5-((6-(2-hydroxypropan-2-yl)pyridin-3-yl)methoxy)-1,3,4-thiadiazol-2-yl)-6-methylpyridine-3-carboxamide] | ≤ 200 |
| COc1cnc(Cl)cc1-c1cc(COC2CC2)ncc1C(=O)Nc1nnc(OC[C@H]2CC[C@H](O)CC2)s1 [Example 232, 2′-chloro-6-(cyclopropoxymethyl)-N-(5-(((1r,4r)-4-hydroxycyclohexyl)methoxy)-1,3,4-thiadiazol-2-yl)-5′-methoxy-(4,4′-bipyridine)-3-carboxamide] | ≤ 200 |
| COc1cnc(C)c(F)c1-c1cc(C)ncc1C(=O)Nc1nnc(OC[C@H]2CCOC2)s1 [Example 249, 3′-fluoro-5′-methoxy-2′,6-dimethyl-N-(5-(((S)-tetrahydrofuran-3-yl)methoxy)-1,3,4-thiadiazol-2-yl)-(4,4′-bipyridine)-3-carboxamide] | ≤ 200 |
| COc1cnc(Cl)cc1-c1cc(C)ncc1C(=O)Nc1nnc(OC[C@@H]2COCCO2)s1 [Example 186, (S)—N-(5-((1,4-dioxan-2-yl)methoxy)-1,3,4-thiadiazol-2-yl)-2′-chloro-5′-methoxy-6-methyl-(4,4′-bipyridine)-3-carboxamide] | ≤ 200 |
| COc1cnc(Cl)cc1-c1cc(C)ncc1C(=O)Nc1nnc(OCC2(C)COC2)s1 [Example 162, 2′-chloro-5′-methoxy-6-methyl-N-(5-((3-methyloxetan-3-yl)methoxy)-1,3,4-thiadiazol-2-yl)-(4,4′-bipyridine)-3-carboxamide] | ≤ 200 |
| COc1cccc(F)c1-c1cc(C)ncc1C(=O)Nc1nnc(OCc2ccc3c(n2)CCCC3O)s1 (racemic) [Example 92, 4-(2-fluoro-6-methoxyphenyl)-N-(5-((5-hydroxy-5,6,7,8-tetrahydroquinolin-2-yl)methoxy)-1,3,4-thiadiazol-2-yl)-6-methylnicotinamide] | ≤ 200 |
| COc1cnc(C)c(F)c1-c1cc(C)ncc1C(=O)Nc1nnc(OC[C@@H]2CCOC2)s1 [Example 250, 3′-fluoro-5′-methoxy-2′,6-dimethyl-N-(5-(((R)-tetrahydrofuran-3-yl)methoxy)-1,3,4-thiadiazol-2-yl)-(4,4′-bipyridine)-3-carboxamide] | ≤ 200 |
| COc1cnc(Cl)cc1-c1cc(C)ncc1C(=O)Nc1nnc(OC[C@@H]2COC[C@H]2C)s1 (single isomer, unassigned) [Example 266] | ≤ 200 |
| COc1cccc(F)c1-c1cc(C)ncc1C(=O)Nc1nnc(OCc2ccc([S@@](C)(=N)=O)cn2)s1 [Example 150, 4-(2-fluoro-6-methoxyphenyl)-6-methyl-N-(5-((5-((S)—S-methylsulfonimidoyl)pyridin-2-yl)methoxy)-1,3,4-thiadiazol-2-yl)nicotinamide] | ≤ 200 |
| COc1cnc(C)cc1-c1cc(C)ncc1C(=O)Nc1nnc(OCc2ccc(Cl)cn2)s1 [Example 36, N-(5-((5-chloropyridin-2-yl)methoxy)-1,3,4-thiadiazol-2-yl)-5′-methoxy-2′,6-dimethyl-(4,4′-bipyridine)-3-carboxamide] | ≤ 200 |
| COc1cnc(C)cc1-c1cc(C)ncc1C(=O)Nc1nnc(OCc2ccc(C(C)(C)O)cn2)s1 [Example 76, N-(5-((5-(2-hydroxypropan-2-yl)pyridin-2-yl)methoxy)-1,3,4-thiadiazol-2-yl)-5′-methoxy-2′,6-dimethyl-(4,4′-bipyridine)-3-carboxamide] | ≤ 200 |
| COc1cnc(Cl)cc1-c1cc(C)ncc1C(=O)Nc1nnc(OCC2COC(CO)CO2)s1 (stereo not shown) [Example 246, 2′-chloro-N-(5-((5-(hydroxymethyl)-1,4-dioxan-2-yl)methoxy)-1,3,4-thiadiazol-2-yl)-5′-methoxy-6-methyl-(4,4′-bipyridine)-3-carboxamide] | ≤ 200 |
| COc1cnc(Cl)cc1-c1cc(C)ncc1C(=O)Nc1nnc(OCC2CCOC2)s1 (stereo in doubt) [Example 170, (R)-2′-chloro-5′-methoxy-6-methyl-N-(5-((tetrahydrofuran-3-yl)methoxy)-1,3,4-thiadiazol-2-yl)-(4,4′-bipyridine)-3-carboxamide] | ≤ 200 |
| COc1cccc(F)c1-c1cc(C)ncc1C(=O)Nc1nnc(OCc2ccc(CCO)cn2)s1 [Example 55, 4-(2-fluoro-6-methoxyphenyl)-N-(5-((5-(2-hydroxyethyl)pyridin-2-yl)methoxy)-1,3,4-thiadiazol-2-yl)-6-methylnicotinamide] | ≤ 200 |
| COc1cccc(F)c1-c1cc2nc[nH]c2cc1C(=O)Nc1nnc(OC[C@H]2CC[C@H](O)CC2)s1 [Example 199, 5-(2-fluoro-6-methoxyphenyl)-N-(5-(((1r,4r)-4-hydroxycyclohexyl)methoxy)-1,3,4-thiadiazol-2-yl)-1H-benzo(d)imidazole-6-carboxamide] | 1000 to 10000 |
